{"source": "patent US20030212118A1", "about": "“Treatment of eating disorders using carboxyalkylethers” (priority 2000, published 2003)", "key": {"[1]": {"test": "Evaluation of CI-1027 in leptin receptor deficient mice (body weight, food consumption)", "format": "in vivo"}, "[2]": {"test": "Evaluation of CI-1027 in female obese Zucker rats (body weight and liver weight)", "format": "in vivo", "conditions": "for Body Weight Day 0: Day 0 (baseline), mean ± SEM; for Body Weight Day 0 / Body Weight Day 7 / Body Weight Day 14 / Body Weight Day 21 / Body Weight Day 28 / Body Weight Day 32 / Liver Weight Day 32 / Percent Liver/Body Weight: n = 6; for Body Weight Day 7: Day 7, mean ± SEM; for Body Weight Day 14: Day 14, mean ± SEM; for Body Weight Day 21: Day 21, mean ± SEM; for Body Weight Day 28: Day 28, mean ± SEM; for Body Weight Day 32 / Liver Weight Day 32 / Percent Liver/Body Weight: Day 32, mean ± SEM", "protocol": "Adult female obese Zucker rats weighing 265 to 268 g were obtained from Genetic Models, Inc. The animals were maintained on a diet of pelleted rodent chow (Ralston Purina) and were given water ad libitum. The animals were housed in cages in a temperature controlled room, with a 12-hour light/12-hour dark cycle (lights were turned on at 6 AM each day). CI-1027 was suspended in a vehicle of 1.5% carboxymethylcellulose containing 0.2% Tween-20. A control group of six rats were dosed daily with vehicle alone. One group of six test animals received daily oral dosing (by gavage) of 2.5 mL/kg suspensions of CI-1027 at 30 mg/kg active drug, while another group of six animals received daily oral dosing of 2.5 mL/kg of suspension at 100 mg/kg of CI-1027. The pelleted rodent chow was available ad libitun, except on Days 0, 7, 14, 21, 28, and 32, when food was removed from the cages at 7:30 AM, and the animals were weighed within 2 hours following removal of the food. The food trays were replaced in the cages after the weights of all animals were measured."}}, "note": "Where a name gives a salt, the structure may show the parent alone. Marks after values point to notes of the source that are not given here."}
{"smiles": "CC(C)(CCCCOCCCCC(C)(C)C(=O)O)C(=O)O", "note": "[CI-1027, 6-(5-carboxy-5-methyl-hexyloxy)-2,2-diiethyl-hexanoic acid, calcium salt]", "values": [{"measurement": "effect on body weight", "setting": "[1]", "value": "no significant effect"}, {"measurement": "effect on food consumption", "setting": "[1]", "value": "no significant effect"}, {"measurement": "Body Weight Day 0", "setting": "[2]; 30 mg/kg daily oral gavage", "value": "265 ± 4", "unit": "g"}, {"measurement": "Body Weight Day 7", "setting": "[2]; 30 mg/kg daily oral gavage", "value": "283 ± 4^a g"}, {"measurement": "Body Weight Day 14", "setting": "[2]; 30 mg/kg daily oral gavage", "value": "299 ± 4^c g"}, {"measurement": "Body Weight Day 21", "setting": "[2]; 30 mg/kg daily oral gavage", "value": "311 ± 3^c g"}, {"measurement": "Body Weight Day 28", "setting": "[2]; 30 mg/kg daily oral gavage", "value": "317 ± 4^c g"}, {"measurement": "Body Weight Day 32", "setting": "[2]; 30 mg/kg daily oral gavage", "value": "321 ± 4^c g"}, {"measurement": "Liver Weight Day 32", "setting": "[2]; 30 mg/kg daily oral gavage", "value": "22.8 ± 1.0^c g"}, {"measurement": "Percent Liver/Body Weight", "setting": "[2]; 30 mg/kg daily oral gavage", "value": "7.09 ± 0.3^c Percent"}, {"measurement": "Body Weight Day 0", "setting": "[2]; 100 mg/kg daily oral gavage", "value": "265 ± 4", "unit": "g"}, {"measurement": "Body Weight Day 7", "setting": "[2]; 100 mg/kg daily oral gavage", "value": "286 ± 3^a g"}, {"measurement": "Body Weight Day 14", "setting": "[2]; 100 mg/kg daily oral gavage", "value": "302 ± 4^b g"}, {"measurement": "Body Weight Day 21", "setting": "[2]; 100 mg/kg daily oral gavage", "value": "314 ± 4^c g"}, {"measurement": "Body Weight Day 28", "setting": "[2]; 100 mg/kg daily oral gavage", "value": "326 ± 5^c g"}, {"measurement": "Body Weight Day 32", "setting": "[2]; 100 mg/kg daily oral gavage", "value": "326 ± 5^c g"}, {"measurement": "Liver Weight Day 32", "setting": "[2]; 100 mg/kg daily oral gavage", "value": "24.8 ± 1.3^c g"}, {"measurement": "Percent Liver/Body Weight", "setting": "[2]; 100 mg/kg daily oral gavage", "value": "7.53 ± 0.3^c Percent"}, {"measurement": "reduction in weight", "setting": "[2]; all treatment groups (30 and 100 mg/kg), over 32 days", "value": "significant reduction in weight"}]}
